The text below walks through data of ChEMBL document CHEMBL1201862, “PubChem BioAssay data set” (2004).

Among the test systems are MCF7; SNB-19; NCI/ADR-RES; CAKI-1; MOLT-4; CCRF-CEM; SF-295; K562; DU-145; HT-29; UACC-62; OVCAR-4; HCT-15; NCI-H226; SK-OV-3; SK-MEL-5; COLO 205; UO-31; A498; SK-MEL-2.
Holding throughout (test): growth of human tumour cells (NCI), 48 h

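Exposure lasted 48 hours, with cells grown in 96-well plates and compounds tested at five concentrations. At the GI50, growth is halved.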 The source made the active and inactive calls. No stated cut-off is given here; in the data, active = GI50 up to about 1.1 µM and inactive = higher.

As for `CC(O)CCC(=O)c1ccoc1` (stereo not given), the GI50 was 5680 µM (inactive) in the test with MCF7; 7000 µM (inactive) in the test with SNB-19; 4990 µM (inactive) in the test with NCI/ADR-RES; 2730 µM (inactive) in the test with CAKI-1; 4080 µM (inactive) with MOLT-4; 5650 µM (inactive) with CCRF-CEM. Further, the GI50 in the test on SF-295 is 7130 µM (inactive); in the test with K562, 6180 µM (inactive); in the test on DU-145 it was 8200 µM (inactive); with HT-29, 8450 µM (inactive); in the test with UACC-62, 5210 µM (inactive); in the test with OVCAR-4, 5110 µM (inactive). Also, the GI50 in the test on HCT-15 is 7660 µM; with NCI-H226, 5610 µM (inactive); in the test on SK-OV-3, 6970 µM (inactive); in the test on SK-MEL-5 it was 4560 µM (inactive); with COLO 205 it was 5580 µM (inactive); in the test with UO-31 it was 3390 µM (inactive). In addition, the GI50 is 3820 µM (inactive) in the test with A498 and 7710 µM (inactive) in the test with SK-MEL-2.
As for `[O-][S+]1SC(=S)C2C=CC=CC21` (stereo not given), the GI50 is 76.9 µM (inactive) in the test on MCF7; 48.4 µM (inactive) with SNB-19; > 100 µM (inactive) in the test with NCI/ADR-RES; > 100 µM (inactive) in the test on CAKI-1; > 100 µM (inactive) in the test with MOLT-4; 2.37 µM (inactive) with CCRF-CEM. The GI50 with SF-295 was 88.9 µM (inactive); in the test with K562, > 100 µM (inactive); with DU-145 it was > 100 µM (inactive); in the test on HT-29, 45.3 µM (inactive); in the test with UACC-62, 58.5 µM (inactive); in the test on OVCAR-4, > 100 µM (inactive). Besides, the GI50 in the test on HCT-15 is 40.9 µM; in the test with NCI-H226, 59.6 µM (inactive); with SK-OV-3, > 100 µM (inactive); in the test on SK-MEL-5, 29.4 µM (inactive); with COLO 205, > 100 µM (inactive); with UO-31 it was 36.8 µM (inactive). Moreover, the GI50 with A498 was 93.1 µM (inactive); with SK-MEL-2, > 100 µM (inactive).
As to `O=c1[nH]c2cc(C(F)(F)F)ccc2nc1CBr`, the GI50 is 4.97 µM (inactive) in the test on MCF7; 15.5 µM (inactive) with SNB-19; 17.4 µM (inactive) in the test with NCI/ADR-RES; 6.25 µM (inactive) with CAKI-1; 1.56 µM (inactive) with MOLT-4; 1.04 µM (active) in the test on CCRF-CEM. Besides, the GI50 in the test on SF-295 is 14.9 µM (inactive); in the test on K562, 5.73 µM (inactive); in the test with DU-145, 14.3 µM (inactive); in the test on HT-29, 11.4 µM (inactive); with UACC-62 it was 9.51 µM (inactive); in the test with OVCAR-4 it was 15.7 µM (inactive). Moreover, the GI50 with HCT-15 is 11.4 µM; in the test with NCI-H226 it was 7.87 µM (inactive); in the test with SK-OV-3, 18.5 µM (inactive); with SK-MEL-5, 9.59 µM (inactive); in the test on COLO 205 it was 8.02 µM (inactive); in the test with UO-31, 3.4 µM (inactive). In addition, the values for the GI50 with A498 and in the test with SK-MEL-2 were 18.4 µM (inactive) and 12.2 µM (inactive), respectively.
Turning to `CC1=CC[C@H](C(C)C)C(C(O)[C@@H](C)O[Si](c2ccccc2)(c2ccccc2)C(C)(C)C)C1=O` (stereo not given in full), the GI50 in the test on MCF7 was 15.8 µM (inactive); in the test with SNB-19, 17.3 µM (inactive); in the test on NCI/ADR-RES, 16.7 µM (inactive); in the test on CAKI-1, 14 µM (inactive); with MOLT-4, 7.36 µM (inactive); with CCRF-CEM, 19.5 µM (inactive). Further, the GI50 in the test on SF-295 was 15 µM (inactive); in the test on K562 it was 9.93 µM (inactive); in the test on DU-145, 21.4 µM (inactive); in the test with HT-29 it was 11.9 µM (inactive); with UACC-62, 14.8 µM (inactive); in the test on OVCAR-4, 15.5 µM (inactive). In addition, the GI50 is 13.9 µM in the test on HCT-15; 20 µM (inactive) with NCI-H226; 28.5 µM (inactive) in the test with SK-OV-3; 16.2 µM (inactive) in the test on SK-MEL-5; 17.2 µM (inactive) with COLO 205; 15.2 µM (inactive) with UO-31. In addition, the figures for the GI50 with A498 and with SK-MEL-2 were 18.6 µM (inactive) and 15.1 µM (inactive), respectively.
Take `Clc1ccc(C2NN=C3c4ccccc4OCC32)cc1` (stereo not given): the GI50 was 3.68 µM (inactive) in the test on MCF7; 5.42 µM (inactive) in the test on SNB-19; 2.35 µM (inactive) with NCI/ADR-RES; 12.2 µM (inactive) with CAKI-1; 4.43 µM (inactive) in the test on MOLT-4; 4.29 µM (inactive) with CCRF-CEM. Further, the GI50 with SF-295 is 2.11 µM (inactive); with K562, 3.39 µM (inactive); in the test on DU-145, 14.9 µM (inactive); in the test with HT-29 it was 3.13 µM (inactive); in the test on UACC-62, 5.07 µM (inactive); in the test on OVCAR-4 it was 13.4 µM (inactive). The GI50 with HCT-15 was 3.08 µM; in the test on NCI-H226, 2.92 µM (inactive); in the test on SK-OV-3, 5.82 µM (inactive); in the test with SK-MEL-5, 3.01 µM (inactive); in the test on COLO 205 it was 2.96 µM (inactive); in the test on UO-31 it was 7.16 µM (inactive). The GI50 was 18.2 µM (inactive) in the test with A498 and 3.48 µM (inactive) in the test with SK-MEL-2.
As for `O[C@H]1[C@H]2[C@H](O)C[C@H](CCOCc3ccccc3)CN2C[C@H]1O`, the GI50 with MCF7, in the test with SNB-19, with NCI/ADR-RES, in the test with CAKI-1, in the test on MOLT-4 and with CCRF-CEM was > 100 µM (inactive) throughout. In addition, the GI50 in the test on SF-295, in the test with K562, in the test on DU-145, in the test with HT-29, in the test on UACC-62 and in the test on OVCAR-4 was > 100 µM (inactive) in each case. Also, the GI50 in the test with HCT-15 was more than 100 µM; with NCI-H226, > 100 µM (inactive); in the test on SK-OV-3 it was > 100 µM (inactive); in the test on SK-MEL-5, > 100 µM (inactive); in the test with COLO 205, > 100 µM (inactive); in the test on UO-31, > 100 µM (inactive). The GI50 with A498 and in the test with SK-MEL-2 was > 100 µM (inactive) throughout.
For `CC(C)(C)c1cc(OCc2nnc3sc(Cc4ccccc4)nn23)c(Cl)cc1OCc1nnc2sc(Cc3ccccc3)nn12`, the GI50 is 17.7 µM (inactive) with MCF7; 33.5 µM (inactive) in the test on SNB-19; 76 µM (inactive) in the test on NCI/ADR-RES; 34.3 µM (inactive) in the test with CAKI-1; 17.3 µM (inactive) in the test with MOLT-4; 3.27 µM (inactive) with CCRF-CEM. Besides, the GI50 in the test on SF-295 was 23.3 µM (inactive); in the test with K562, 14.5 µM (inactive); with DU-145, 33 µM (inactive); in the test on HT-29 it was 22.1 µM (inactive); with UACC-62 it was 19.5 µM (inactive); in the test on OVCAR-4, 24.8 µM (inactive). The GI50 with HCT-15 is 33.4 µM; in the test with NCI-H226, > 100 µM (inactive); with SK-OV-3, 34 µM (inactive); in the test with SK-MEL-5, 15.3 µM (inactive); in the test on COLO 205, 21.6 µM (inactive); with UO-31 it was 47.5 µM (inactive). In addition, the GI50 was 30.5 µM (inactive) in the test with A498 and 37.8 µM (inactive) with SK-MEL-2.
Take `COc1cc(NC=C2C(=O)OC(C)(C)OC2=O)c(OC)c(C)c1OC`: the GI50 in the test on MCF7 is > 100 µM (inactive); with SNB-19 it was > 100 µM (inactive); in the test on NCI/ADR-RES, > 100 µM (inactive); with CAKI-1 it was > 83.4 µM (inactive); in the test on MOLT-4 it was > 100 µM (inactive); with CCRF-CEM, > 100 µM (inactive). Moreover, the GI50 in the test with SF-295 was > 100 µM (inactive); in the test on K562 it was > 100 µM (inactive); in the test with DU-145, > 100 µM (inactive); in the test with HT-29 it was > 100 µM (inactive); in the test with UACC-62, > 100 µM (inactive); in the test with OVCAR-4, > 74 µM (inactive). The GI50 was more than 100 µM with HCT-15; > 100 µM (inactive) in the test on NCI-H226; > 100 µM (inactive) with SK-OV-3; > 100 µM (inactive) in the test on SK-MEL-5; > 100 µM (inactive) with COLO 205; > 100 µM (inactive) in the test with UO-31. Also, the GI50 with A498 and with SK-MEL-2 was > 100 µM (inactive) each time.
On to `COc1cc(N(CCC#N)CCC#N)ccc1/C=C1\SC(=S)NC1=O`, for which the GI50 in the test on MCF7, in the test on SNB-19, in the test with NCI/ADR-RES, with CAKI-1, in the test with MOLT-4 and in the test with CCRF-CEM was > 100 µM (inactive) each time. The GI50 with SF-295, in the test with K562, in the test with DU-145, in the test with HT-29, in the test with UACC-62 and with OVCAR-4 was > 100 µM (inactive) each time. Further, the GI50 is more than 100 µM with HCT-15; > 100 µM (inactive) in the test with NCI-H226; > 100 µM (inactive) with SK-OV-3; > 100 µM (inactive) in the test with SK-MEL-5; > 100 µM (inactive) in the test with COLO 205; > 100 µM (inactive) with UO-31. For the same compound, the GI50 in the test on A498 and with SK-MEL-2 was > 100 µM (inactive) in each case.
With `c1ccc(C(=NNc2nc3ccccc3o2)c2ccccn2)nc1`, the GI50 was < 0.0161 µM (active) in the test on MCF7; 0.194 µM (active) in the test on SNB-19; 0.0245 µM (active) in the test with NCI/ADR-RES; 0.0723 µM (active) in the test on CAKI-1; < 0.0105 µM (active) in the test with MOLT-4; < 0.01 µM (active) with CCRF-CEM. In addition, the GI50 in the test with SF-295 was 0.121 µM (active); in the test on K562, 0.0327 µM (active); with DU-145 it was 0.188 µM (active); with HT-29, < 0.0164 µM (active); with UACC-62, 0.0993 µM (active); with OVCAR-4, 0.0261 µM (active). Moreover, the GI50 is 0.0299 µM in the test with HCT-15; < 0.01 µM (active) in the test on NCI-H226; 0.0292 µM (active) in the test on SK-OV-3; 0.0818 µM (active) in the test with SK-MEL-5; < 0.01 µM (active) in the test on COLO 205; 0.0685 µM (active) in the test with UO-31. The GI50 in the test on A498 was 0.182 µM (active); in the test on SK-MEL-2, 0.0883 µM (active).
